Laboratory results published in patent US20090181929A1, “ORGANIC COMPOUNDS” (priority 2006, published 2009).
pIC50: −log10 of the molar value.

Molecular target: T1, CETP (Homo sapiens, UniProt P11597)
T1 construct: Human plasma (50 μL), assay buffer (35 μL) and test compound; tissue New Drug Development Research Center, Inc; host or cells: human EDTA plasma from healthy men
T1 sequence (P11597 18-493): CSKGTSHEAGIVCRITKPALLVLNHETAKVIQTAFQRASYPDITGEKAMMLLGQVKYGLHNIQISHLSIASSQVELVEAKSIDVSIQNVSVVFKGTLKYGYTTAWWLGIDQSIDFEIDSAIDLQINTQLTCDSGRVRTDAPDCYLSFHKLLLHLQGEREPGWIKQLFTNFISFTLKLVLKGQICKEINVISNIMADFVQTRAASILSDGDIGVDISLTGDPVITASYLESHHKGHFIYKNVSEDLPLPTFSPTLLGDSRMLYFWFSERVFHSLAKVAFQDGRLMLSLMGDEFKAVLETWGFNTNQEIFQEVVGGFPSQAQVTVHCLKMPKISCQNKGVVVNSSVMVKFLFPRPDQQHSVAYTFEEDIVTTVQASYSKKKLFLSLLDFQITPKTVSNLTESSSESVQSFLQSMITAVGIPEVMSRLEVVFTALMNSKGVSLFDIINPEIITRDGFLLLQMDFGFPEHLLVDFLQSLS
Experiment: in vitro CETP activity in human plasma (BODIPY-CE donor microemulsion, fluorescence)
Assay type: biochemical
Procedure: For purposes of detecting the in vitro and in vivo CETP activity, human pro-apolipoprotein AI (pro-apoAI) and donor microemulsion are prepared as follows. The cDNA of human pro-apoAI (NCBI accession number: NM_000039) is cloned from human liver Quick-Clone™ cDNA (Clontech, CA) and inserted to a pET28a vector (Novagen, Germany) for bacterial expression. Expressed protein as a fusion protein with 6×His-tag at N-terminus in BL-21 Gold (DE3) (Strategene, CA) is purified using HiTrap Chelating (GE Healthcare, CT). Pro-apoAI containing microemulsion as a donor particle is prepared following previous reports (J. Biol. Chem., 280:14918-22). Glyceryl trioleate (62.5 ng, Sigma, Mo.), 3-sn-phosphatidylcholine (583 ng, Wako Pure Chemical Industries, Japan), and cholesteryl BODIPY® FL C12 (250 ng, Invitrogen, CA) are dissolved in 1 mL of chloroform. The solution is evaporated, then residual solvent is removed in vacuum for more than 1 hr. The dried lipid mixture is dissolved in 500 μL of the assay buffer (50 mM Tris-HCl (pH7.4) containing 150 mM NaCl and 2 mM EDTA) and sonicated at 50° C. with a microtip (MICROSON™ ULTRASONIC CELL DISRUPTOR, Misonix, Farmingdale, N.Y.) at output power 006 for 2 min. After sonication, the solution is cooled to 40° C., added to 100 μg of human pro-apoAI, and sonicated at output power 004 for 5 min at 40° C. The solution, BODIPY-CE microemulsion as a donor molecule is stored at 4° C. after filtration through a 0.45 μm PVDF filter.
For purposes of detecting in vitro CETP activity, human EDTA plasma samples from healthy men are purchased from New Drug Development Research Center, Inc. Donor solution is prepared by a dilution of donor microemulsion with assay buffer. Human plasma (50 μL), assay buffer (35 μL) and test compound dissolved in dimethylsulfoxide (1 μL) are added to each well of 96 well half area black flat bottom plate. The reaction is started by the addition of donor solution (14 μL) into each well. Fluorescence intensities are measured every 30 min at 37° C. with excitation wave length of 485 nm and emission wavelength of 535 nm. The CETP activity (Fl/min) is defined as the changes of fluorescence intensity from 30 to 90 min. The IC50 value is obtained by the logistic equation (Y=Bottom+(Top-Bottom)/(1+(x/IC50)̂Hill slope) using Origin software, version 7.5 SR3.

| SMILES | pIC50 |
| --- | --- |
| CCN(CC1CCCC1)c1nc(C)c(Br)cc1CN(Cc1cc(C(F)(F)F)cc(C(F)(F)F)c1)c1nnn(C)n1 [Compound 4, (3-{[(3,5-Bis-trifluoromethyl-benzyl)-(2-methyl-2H-tetrazol-5-yl)-amino]-methyl}-5-bromo-6-methyl-pyridin-2-yl)-cyclopentylmethyl-ethyl-amine] | 6.96 |
| CCCCN(C)c1cnc(N(CC)CC2CCCC2)c(CN(Cc2cc(C(F)(F)F)cc(C(F)(F)F)c2)c2nnn(C)n2)c1 [Compound 7, 3-{[(3,5-Bis-trifluoromethyl-benzyl)-(2-methyl-2H-tetrazol-5-yl)-amino]-methyl}-N*5*-butyl-N*2*-cyclopentylmethyl-N*2*-ethyl-N*5*-methyl-pyridine-2,5-diamine] | 6.14 |
| CCN(CC1CCCC1)c1ncc(N2CCC2)cc1CN(Cc1cc(C(F)(F)F)cc(C(F)(F)F)c1)c1nnn(C)n1 [Compound 1, (5-Azetidin-1-yl-3-{[(3,5-bis-trifluoromethyl-benzyl)-(2-methyl-2H-tetrazol-5-yl)-amino]-methyl}-pyridin-2-yl)-cyclopentylmethyl-ethyl-amine] | 6.59 |
| CCN(CC1CCCC1)c1ncc(N(C)C(C)=O)cc1CN(Cc1cc(C(F)(F)F)cc(C(F)(F)F)c1)c1nnn(C)n1 [Compound 2, N-[5-{[(3,5-Bis-trifluoromethyl-benzyl)-(2-methyl-2H-tetrazol-5-yl)-amino]-methyl}-6-(cyclopentylmethyl-ethyl-amino)-pyridin-3-yl]-N-methyl-acetamide] | 6.43 |
| CCN(CC1CCCC1)c1ncc(I)cc1CN(Cc1cc(C(F)(F)F)cc(C(F)(F)F)c1)c1nnn(C)n1 [Compound 6, (3-{[(3,5-Bis-trifluoromethyl-benzyl)-(2-methyl-2H-tetrazol-5-yl)-amino]-methyl}-5-iodo-pyridin-2-yl)-cyclopentylmethyl-ethyl-amine] | 6.64 |

Second part, the compound after the results:

| pIC50 | SMILES |
| --- | --- |
| 6.20 | CCN(CC1CCCC1)c1ncc([N+](=O)[O-])cc1CN(Cc1cc(C(F)(F)F)cc(C(F)(F)F)c1)c1nnn(C)n1 [Compound 8, (3-{[(3,5-Bis-trifluoromethyl-benzyl)-(2-methyl-2H-tetrazol-5-yl)-amino]-methyl}-5-nitro-pyridin-2-yl)-cyclopentylmethyl-ethyl-amine] |
| 6.85 | CCN(CC1CCCC1)c1ncc(SC)cc1CN(Cc1cc(C(F)(F)F)cc(C(F)(F)F)c1)c1nnn(C)n1 [Compound 3, (3-{[(3,5-Bis-trifluoromethyl-benzyl)-(2-methyl-2H-tetrazol-5-yl)-amino]-methyl}-5-methylsulfanyl-pyridin-2-yl)-cyclopentylmethyl-ethyl-amine] |
| 6.52 | CCN(CC1CCCC1)c1ncc(C)cc1CN(Cc1cc(C(F)(F)F)cc(C(F)(F)F)c1)c1nnn(C)n1 [Compound 5, (3-{[(3,5-Bis-trifluoromethyl-benzyl)-(2-methyl-2H-tetrazol-5-yl)-amino]-methyl}-5-methyl-pyridin-2-yl)-cyclopentylmethyl-ethyl-amine] |
